What was measured:
CYP3A4 = CYP3A4 expression in differentiated HepaRG cells; type: cell-based, human; conditions: 48 h
Protocol: HepaRG cells were seeded at a density of 2.6 × 10^4 cells/cm^2 in Williams’ E medium supplemented with 2 mM GlutaMAX (Thermo Fisher Scientific, Waltham, MA), 100 U/mL penicillin, 100 μg/mL streptomycin, 10% HyClone FCS (Thermo Fisher Scientific), 5 μg/mL insulin, and […] hydrocortisone-hemisuccinate. At confluence after two weeks, HepaRG cells were shifted to a medium supplemented with 1.7% DMSO for two additional weeks to obtain confluent differentiated cultures containing equal proportions of hepatocyte-like and progenitors/primitive biliary-like cells. These differentiated hepatic cell cultures were exposed to the compounds in Williams’ E medium supplemented with 2% FCS plus 0.2% DMSO for 48 h. […]
The assay plate was imaged and analyzed using the Cell Health Profiling BioApplications (HCS Studio Cellomics software Version x.6.4.3 (Build 7207)) on the ArrayScan VTI HCS Reader (Thermo Fisher Scientific—Cellomics, Pittsburgh, PA) using the 20× objective (Zeiss, LD Plan Neofluar 20×/0.4 korr). […]
The CYP3A4 expression was quantified using an arbitrary unit of fluorescent mass representing the combination of intensity and area adjusted to cell number calculated by nuclei counting (Hoechst).

ovine COX-1 = target: T1, ovine COX-1 (Ovis aries, UniProt P05979); assay: Isolated COX-1 activity; type: biochemical
T1 construct: purchased Cayman Chemicals
T1 sequence (P05979 25-600): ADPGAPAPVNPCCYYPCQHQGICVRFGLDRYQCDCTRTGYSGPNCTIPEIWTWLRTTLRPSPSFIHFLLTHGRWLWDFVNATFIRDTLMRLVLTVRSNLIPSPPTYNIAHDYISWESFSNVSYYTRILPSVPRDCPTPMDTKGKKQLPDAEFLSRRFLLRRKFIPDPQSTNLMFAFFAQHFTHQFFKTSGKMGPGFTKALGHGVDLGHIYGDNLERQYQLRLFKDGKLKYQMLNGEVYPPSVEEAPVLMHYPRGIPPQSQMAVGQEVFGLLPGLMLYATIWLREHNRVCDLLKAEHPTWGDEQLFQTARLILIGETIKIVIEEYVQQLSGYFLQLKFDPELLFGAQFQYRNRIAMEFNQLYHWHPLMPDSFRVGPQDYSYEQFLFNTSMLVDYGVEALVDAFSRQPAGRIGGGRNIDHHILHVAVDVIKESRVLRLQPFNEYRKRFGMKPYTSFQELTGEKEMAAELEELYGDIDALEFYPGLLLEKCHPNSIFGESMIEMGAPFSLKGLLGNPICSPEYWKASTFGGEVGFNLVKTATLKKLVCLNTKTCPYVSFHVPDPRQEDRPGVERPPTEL
Protocol: (§1) Purified ovine COX-1 (Cayman Chemicals; 50 units) or human recombinant COX-2 (Cayman Chemicals; 20 units) was dissolved in 100 mM Tris buffer pH 8, 5 mM glutathione, 5 μM hemoglobin, and 100 μM EDTA. COX isoenzymes were preincubated with the vehicle (DMSO) or 27a for 5 min at 4 °C and 1 min at 37 °C. Addition of arachidonic acid (COX-1: 5 μM; COX-2: 2 μM) initiated the formation of COX-derived 12(S)-hydroxy-5-cis-8,10-trans-heptadecatrienoic acid (12-HHT), which was extracted and analyzed by RP-HPLC according to 5-LOX products.

5-LOX = target: T2, 5-LOX (Homo sapiens, UniProt P09917); assay: Cell-free 5-LOX activity (isolated human recombinant enzyme)
T2 sequence (P09917 1-674): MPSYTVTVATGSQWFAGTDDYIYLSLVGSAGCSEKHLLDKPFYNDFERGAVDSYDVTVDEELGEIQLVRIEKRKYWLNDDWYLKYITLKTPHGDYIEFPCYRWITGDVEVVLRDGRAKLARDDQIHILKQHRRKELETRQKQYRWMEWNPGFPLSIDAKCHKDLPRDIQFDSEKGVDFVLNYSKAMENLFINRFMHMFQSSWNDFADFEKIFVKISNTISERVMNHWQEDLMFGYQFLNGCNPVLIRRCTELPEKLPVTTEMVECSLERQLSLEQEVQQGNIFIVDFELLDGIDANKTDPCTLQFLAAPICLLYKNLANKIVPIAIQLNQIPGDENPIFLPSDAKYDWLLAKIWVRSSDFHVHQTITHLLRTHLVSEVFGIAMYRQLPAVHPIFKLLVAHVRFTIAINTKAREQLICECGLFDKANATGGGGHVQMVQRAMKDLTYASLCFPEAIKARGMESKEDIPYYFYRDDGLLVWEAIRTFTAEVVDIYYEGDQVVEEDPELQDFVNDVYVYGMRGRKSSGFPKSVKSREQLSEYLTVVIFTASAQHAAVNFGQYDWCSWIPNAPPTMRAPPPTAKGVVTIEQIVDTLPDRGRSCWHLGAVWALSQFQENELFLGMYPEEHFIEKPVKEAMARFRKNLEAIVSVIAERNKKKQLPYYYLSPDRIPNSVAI

human recombinant COX-2 = target: T3, human recombinant COX-2 (Homo sapiens, UniProt P35354); assay: COX-2 activity; type: biochemical
T3 construct: purchased Cayman Chemicals
T3 sequence (P35354 18-604): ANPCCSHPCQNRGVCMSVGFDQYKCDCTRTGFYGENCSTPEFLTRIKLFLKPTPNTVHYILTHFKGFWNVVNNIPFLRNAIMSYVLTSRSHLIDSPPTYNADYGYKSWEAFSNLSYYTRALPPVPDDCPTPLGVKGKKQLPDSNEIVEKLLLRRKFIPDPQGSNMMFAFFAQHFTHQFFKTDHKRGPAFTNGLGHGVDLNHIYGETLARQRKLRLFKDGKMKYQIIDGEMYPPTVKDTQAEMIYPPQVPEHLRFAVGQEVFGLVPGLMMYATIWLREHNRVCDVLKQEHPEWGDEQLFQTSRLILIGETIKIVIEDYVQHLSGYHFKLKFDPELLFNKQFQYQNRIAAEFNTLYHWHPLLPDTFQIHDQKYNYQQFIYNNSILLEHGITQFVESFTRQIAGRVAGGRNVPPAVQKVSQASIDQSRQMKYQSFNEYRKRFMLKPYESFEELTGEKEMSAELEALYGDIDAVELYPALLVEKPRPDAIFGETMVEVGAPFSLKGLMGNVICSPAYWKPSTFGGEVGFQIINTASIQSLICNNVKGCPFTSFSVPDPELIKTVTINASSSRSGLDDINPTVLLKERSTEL
Protocol: as §1

[1] = Concentrations and metabolism of compound in mice with zymosan-induced peritonitis; type: in vivo
Protocol: LCMs, 27a, and 27a metabolites were extracted from PMNL, medium of the liver-on-chip, murine plasma, peritoneal exudate, or homogenized murine tissue as described.[6] In brief, PBS pH 7.4, methanol, chloroform, and saline (final ratio: 14:34:35:17) were successively added together with 13d (9 pmol) as the internal standard. The organic layer was evaporated, and the extracted LCMs were dissolved in methanol.
LCMs, 27a, and 27a metabolites were separated at a flow rate of 0.8 mL/min and a column temperature of 45 °C, with acetonitrile/H2O (10:90) as mobile phase A and acetonitrile as mobile phase B, both acidified with 0.07% formic acid. The linear gradient from A/B = 50:50 to 0:100 within 4.5 min was followed by isocratic elution with A/B = 0:100 for 1 min. MS parameters were adjusted according to Pein et al.[6] and as detailed in Table S3. Signal intensities were normalized to the internal standard 13d, and concentrations were calculated using external calibration curves as specified in Table S3.
Zymosan (2 mg/mL in saline, i.p., 0.5 mL, Sigma-Aldrich) was injected at 30 min (i.p.) or 60 min (p.o.) post compound administration. Mice were sacrificed by inhalation of CO2 after another 30 min to determine LTC4 levels, lipid mediator profiles, metabolites, and vascular permeability and after 4 h to analyze LTB4 levels and cell infiltration.[72] Plasma and peritoneal exudates were collected, and cells were counted in exudates after trypan blue staining. Vascular permeability was measured by injection of Evans blue dye (40 mg/kg in saline, 0.3 mL, Sigma-Aldrich) into the tail vain directly before peritonitis induction.[72] The exudate was centrifuged (3000g, 5 min), and the absorbance was measured at 610 nm (DU730 spectrophotometer, Beckman Coulter, Krefeld, Germany). Levels of LTB4 and cysteinyl-LTs (dominated by LTC4) were quantified in the exudate by ELISA (Enzo Life Sciences, Lörrach, Germany) according to the manufacturer’s instructions. Compound 27a, its metabolites, and lipid mediators were extracted and analyzed by UPLC-MS/MS.

## C/C(=C\CC/C(C)=C/CC[C@]1(C)CCc2c(C)c(O)c(C)c(C)c2O1)CCC=C(CO)CO [Compound 27a, α-amplexichromanol]
CYP3A4
  CYP450 enzyme (CYP3A4) expression: did not induce CYP450 enzyme expression
Ovine COX-1
  COX-1 inhibition (isolated ovine enzyme): not substantially inhibited
5-LOX; Triton X-100 (0.01%)
  Effect of Triton X-100 on 5-LOX inhibition: did not substantially impair 5-LOX inhibition
5-LOX; human recombinant 5-LOX
  Dependence of 5-LOX inhibition on substrate (arachidonic acid) concentration: independent of the substrate concentration
5-LOX; preincubation 15 min, 10-fold dilution
  Reversibility of 5-LOX inhibition: reversible
5-LOX; read-out: 5-LOX enzyme IC50, isolated human 5-LOX, cell-free, mean ± SEM
  IC50: 110 ± 30 nM
5-LOX; read-out: 5-LOX enzyme residual activity at 1 μM
  remaining activity at 1 µM: 0.1%
Human recombinant COX-2
  COX-2 inhibition: not substantially inhibited
[1]; CD-1, mouse, plasma, po, mice with acute peritonitis, 10 mg/kg p.o., 90 min post administration
  concentration at 90 min: 30 to 900 nM
[1]; mice, 10 mg/kg p.o., plasma
  Side-chain degradation in mice: resistant to degradation
[1]; mice, p.o.
  Time to uptake after oral administration: ≤ 1 h
[1]; mice, peritonitis, oral administration 30 mg/kg
  Concentrations in the peritoneal exudate: 0.5 to 4 nM
